Results published in publication PMC7506137, “Selective Phosphodiesterase 1 Inhibitor BTTQ Reduces Blood Pressure in Spontaneously Hypertensive and Dahl Salt Sensitive Rats: Role of Peripheral Vasodilation” (Frontiers in Physiology, 2020).
Where “and” joins values, the source holds several entries; their conditions need not be identical. Equal values may be shown once. Read-outs that look alike come from different tables or passages of the source.

Experiment: Plasma exposure (dried blood spot) after single oral dose
Type: in vivo
Conditions: rat; for concentration at 5 h / concentration at 6 h / concentration at 24 h: Sprague Dawley, po, 3 mg/kg, oral 3 mg/kg; for concentration at 24 h / Unbound Concentration, individual animals / Concentration, individual animals: 24 h
Method: Male Sprague Dawley rats at 6 to 7 weeks were dosed orally by p.o. gavage with different doses of BTTQ formulated in 1% hydroxyethlycellulose (Dow Corning, Midland, MI, United States) (w/v), 0.25% polysorbate 80 (Sigma-Aldrich, St. Louis, MO, United States) (v/v), and 0.05% antifoam (v/v; Dow Corning, Midland, MI, United States) in purified water. Following dosing, ear temperature was measured by using a k-type thermocouple probe digital thermometer (Cole Parmer) every hour for 6 h and then at 24 h. Blood samples for plasma exposure measurement were obtained at the same time. Blood was collected via a tail snip directly into a 20-μL EDTA-coated capillary and immediately spotted onto a Whatman DMPK-C DBS card (GE Healthcare Bio-Sciences). Tail snips were performed by removing approximately 1 mm of the tail by using a scalpel. Blood flow was initiated by gentle squeezing of the tail. No analgesia or anesthesia was used during blood collections. A single sample and spot were collected per time point. The DBS cards were allowed to dry for approximately 2 h at room temperature, after which the cards were placed in a zip-top bag, stored, and shipped at ambient temperature.

With `O=c1c2nnc(C3(C4CC4)CC3)n2c2c(n1CC1CC1)CCCC2` [BTTQ, 1-[1,1′-bi(cyclopropyl)-1-yl]-5-(cyclopropylmethyl)-6,7,8,9-tetrahydro[1,2,4]triazolo[4,3-A]quinoxaline-4(5H)-one] the concentration at 5 h (male, whole blood (dried blood spot), 5 h, dried blood spot, read-out: Concentration, Mean) was 2170 nM, the concentration at 5 h (male, whole blood (dried blood spot), 5 h, dried blood spot, read-out: Concentration, individual animals) was 2680 nM and the concentration at 6 h (male, whole blood (dried blood spot), 6 h, FU 0.053, read-out: Unbound Concentration, Mean) was 93.5 nM. The concentration at 6 h (male, whole blood (dried blood spot), 6 h, FU 0.053, read-out: Unbound Concentration, individual animals) was 98.1 nM, the concentration at 6 h (male, whole blood (dried blood spot), 6 h, dried blood spot, read-out: Concentration, Mean) was 1760 nM and the concentration at 6 h (male, whole blood (dried blood spot), 6 h, dried blood spot, read-out: Concentration, individual animals) was 1850 nM. The concentration at 24 h (male, whole blood (dried blood spot), FU 0.053, read-out: Unbound Concentration, Mean) was 5 nM, the concentration at 24 h (male, whole blood (dried blood spot), dried blood spot, read-out: Concentration, Mean) was 94.2 nM and the half-life (male, whole blood (dried blood spot), after oral administration, Sprague Dawley rats) was ~240 min. For the same compound, the concentration at 4 h (oral 0.03 mg/kg, 5 h, FU 0.053, 0.03 mg/kg, read-out: Unbound Concentration, individual animals) was 1.35 nM and 1.39 nM (2×) and 1.51 nM, the concentration at 4 h (oral 0.03 mg/kg, 5 h, dried blood spot, 0.03 mg/kg, read-out: Concentration, individual animals) was 25.4 nM and 26.3 nM and 28.4 nM and 26.2 nM and the concentration at 4 h (oral 0.03 mg/kg, 6 h, FU 0.053, 0.03 mg/kg, read-out: Unbound Concentration, individual animals) was 1.93 nM and 0.917 nM and 0.906 nM and 0.938 nM and 1.13 nM. The concentration at 4 h (oral 0.03 mg/kg, 6 h, dried blood spot, 0.03 mg/kg, read-out: Concentration, individual animals) was 36.4 nM and 17.3 nM and 17.1 nM and 17.7 nM and 21.4 nM, the “Unbound Concentration, individual animals” value (from here on “Unbound Concentration”) (oral 0.03 mg/kg, FU 0.053) was “BQL” and the “Concentration, individual animals” value (oral 0.03 mg/kg, dried blood spot) was “BQL”. The concentration at 4 h (oral 0.1 mg/kg, 1 h, FU 0.053, 0.1 mg/kg, read-out: Unbound Concentration, individual animals) was 12.1 nM and 9.12 nM and 9.54 nM and 9.28 nM, the concentration at 4 h (oral 0.1 mg/kg, 1 h, dried blood spot, 0.1 mg/kg, read-out: Concentration, individual animals) was 229 nM and 172 nM and 180 nM and 175 nM and the concentration at 4 h (oral 0.1 mg/kg, 2 h, FU 0.053, 0.1 mg/kg, read-out: Unbound Concentration, individual animals) was 10.2 nM and 10.1 nM and 8.9 nM and 9.22 nM. For the same compound, the concentration at 4 h (oral 0.1 mg/kg, 2 h, dried blood spot, 0.1 mg/kg, read-out: Concentration, individual animals) was 193 nM and 190 nM and 168 nM and 174 nM, the concentration at 4 h (oral 0.1 mg/kg, 3 h, FU 0.053, 0.1 mg/kg, read-out: Unbound Concentration, individual animals) was 8.96 nM and 9.91 nM and 7.63 nM and 9.49 nM and the concentration at 4 h (oral 0.1 mg/kg, 3 h, dried blood spot, 0.1 mg/kg, read-out: Concentration, individual animals) was 169 nM and 187 nM and 144 nM and 179 nM. The concentration at 4 h (oral 0.1 mg/kg, 4 h, FU 0.053, 0.1 mg/kg, read-out: Unbound Concentration, individual animals) was 7.05 nM and 7.21 nM and 4.67 nM and 7.74 nM, the concentration at 4 h (oral 0.1 mg/kg, 4 h, dried blood spot, 0.1 mg/kg, read-out: Concentration, individual animals) was 133 nM and 136 nM and 88.1 nM and 146 nM and the concentration at 4 h (oral 0.1 mg/kg, 5 h, FU 0.053, 0.1 mg/kg, read-out: Unbound Concentration, individual animals) was 5.35 nM and 4.7 nM and 3.91 nM and 5.72 nM. The concentration at 4 h (oral 0.1 mg/kg, 5 h, dried blood spot, 0.1 mg/kg, read-out: Concentration, individual animals) was 101 nM and 88.7 nM and 73.7 nM and 108 nM, the concentration at 4 h (oral 0.1 mg/kg, 6 h, FU 0.053, 0.1 mg/kg, read-out: Unbound Concentration, individual animals) was 5.83 nM and 4.21 nM and 3.48 nM and 4.92 nM and the concentration at 4 h (oral 0.1 mg/kg, 6 h, dried blood spot, 0.1 mg/kg, read-out: Concentration, individual animals) was 110 nM and 79.5 nM and 65.7 nM and 92.8 nM. The “Unbound Concentration” value (oral 0.1 mg/kg, FU 0.053, 0.1 mg/kg) was “BQL”, the “Concentration, individual animals” value (oral 0.1 mg/kg, dried blood spot, 0.1 mg/kg) was “BQL” and the concentration at 4 h (oral 0.3 mg/kg, 1 h, FU 0.053, 0.3 mg/kg, read-out: Unbound Concentration, individual animals) was 19.2 nM and 31.4 nM and 33.8 nM and 30 nM. For the same compound, the concentration at 4 h (oral 0.3 mg/kg, 1 h, dried blood spot, 0.3 mg/kg, read-out: Concentration, individual animals) was 362 nM and 593 nM and 638 nM and 566 nM, the concentration at 4 h (oral 0.3 mg/kg, 2 h, FU 0.053, 0.3 mg/kg, read-out: Unbound Concentration, individual animals) was 25.4 nM and 27.8 nM and 21 nM and 25 nM and the concentration at 4 h (oral 0.3 mg/kg, 2 h, dried blood spot, 0.3 mg/kg, read-out: Concentration, individual animals) was 479 nM and 525 nM and 397 nM and 472 nM. For the same compound, the concentration at 4 h (oral 0.3 mg/kg, 3 h, FU 0.053, 0.3 mg/kg, read-out: Unbound Concentration, individual animals) was 14.8 nM and 17.4 nM and 17.1 nM and 19.2 nM, the concentration at 4 h (oral 0.3 mg/kg, 3 h, dried blood spot, 0.3 mg/kg, read-out: Concentration, individual animals) was 280 nM and 328 nM and 323 nM and 363 nM and the concentration at 4 h (oral 0.3 mg/kg, 4 h, FU 0.053, 0.3 mg/kg, read-out: Unbound Concentration, individual animals) was 12.1 nM (2×) and 11.3 nM and 11.1 nM. For the same compound, the concentration at 4 h (oral 0.3 mg/kg, 4 h, dried blood spot, 0.3 mg/kg, read-out: Concentration, individual animals) was 229 nM (2×) and 213 nM and 210 nM, the concentration at 4 h (oral 0.3 mg/kg, 5 h, FU 0.053, 0.3 mg/kg, read-out: Unbound Concentration, individual animals) was 8 nM and the “Unbound Concentration” value (oral 0.3 mg/kg, FU 0.053) was “BQL”. The “Concentration, individual animals” value (oral 0.3 mg/kg, dried blood spot) was “BQL”.
